Data from patent publication US20150374851A1, “AAV VECTORS EXPRESSING SEC10 FOR TREATING KIDNEY DAMAGE” (The Trustees of the University of Pennsylvania, priority 2009, published 2015).

How the values were obtained:
normal MDCK cells = conditions: U0126 30 min, then 1 mM H2O2 plus U0126 30 min
Protocol: (§1) Normal and hSec10-overexpressing (Sec10) MDCK cells were grown on collagen-matrix for 12-14 days as described herein and then treated with 1 mM of hydrogen peroxide for 30 min. Some cells were treated with 10 μM U0126 30 min before the treatment of hydrogen peroxide. After the treatment cells were fixed with 4% paraformaldehyde and then stained with F-actin phalloidin-conjugated cy3. Numbers of damaged cysts were counted using fluorescence microscope.
(§2) Type II Madin-Darby canine kidney (MDCK) cells (Control cells) were obtained from Dr. K. Mostov (UCSF, San Francisco, Calif.). MDCK type II cells were overexpressing hSec10 (Sec10-overexpressing cells). See, e.g, Lipschutz et al, 2000 cited above. Cells were grown in modified Eagle's minimal essential medium (MEM) containing Earl's balanced salt solution and glutamine supplemented with 5% fetal calf serum, 100 U/ml penicillin, and 100 μg/m streptomycin on the plastic culture dishes. Some cells were grown on the 24-mm Transwell 0.45 μm polycarbonate filter units coated with collagen (Corning Life Sciences, Lowell, Mass.). Pore size on all filters was 0.4 μm. Cell monolayers were used for experiments after 7 d of culture with daily changes in medium. Cells were plated as single cells in a three-dimensional (3D) type I collagen gel. […]

[1] = test system: Sec10-overexpressing MDCK cells; conditions: U0126 30 min, then 1 mM H2O2 plus U0126 30 min
Protocol: as §1, §2

[2] = test system: Sec10-overexpressing MDCK cells
Protocol: (§3) Type II Madin-Darby canine kidney (MDCK) cells (Control cells) were obtained from Dr. K. Mostov (UCSF, San Francisco, Calif.). MDCK type II cells were overexpressing hSec10 (Sec10-overexpressing cells). See, e.g, Lipschutz et al, 2000 cited above. Cells were grown in modified Eagle's minimal essential medium (MEM) containing Earl's balanced salt solution and glutamine supplemented with 5% fetal calf serum, 100 U/ml penicillin, and 100 μg/m streptomycin on the plastic culture dishes. Some cells were grown on the 24-mm Transwell 0.45 μm polycarbonate filter units coated with collagen (Corning Life Sciences, Lowell, Mass.). Pore size on all filters was 0.4 μm. Cell monolayers were used for experiments after 7 d of culture with daily changes in medium. Cells were plated as single cells in a three-dimensional (3D) type I collagen gel. To culture collagen matrix, cells grown on plastic culture dishes were harvested using trypsin-EDTA, and suspended cells on the type I collagen gel and then seeded in chamber slide for 14 days and then treated with H2O2 (Sigma-Aldrich, Co.).
(§4) Control cells and Sec10-overexpressing cells were grown on the Transwell filter for 7 days after seeding. TER was measured using epithelial volt-ohmmeter (Model EVOM, World Precision Instruments). TER values were presented as the measured resistance in ohm multiplied by the surface area of the Transwell filter.
(§5) 1) control and Sec10-overexpressing cells were treated with U0126 alone for 30 min, U0126 plus H2O2 for 30 min, and then U0126 alone for 24 hrs (FIG. 5A), and
(§6) 2) control and Sec10-overexpressing cells were treated with H2O2 for 30 min, and U0126 alone for 24 hrs (FIG. 5B).

control MDCK cells = test system: control MDCK cells
Protocol: as §3, §4, §5, §6

[3] = test system: phosphorylated (active) ERK; conditions: 10 μM U0126 for 30 min, then 1 mM H2O2 for 30 min; Transwell filter
Protocol: Normal and hSec10-overexpressing (Sec10) MDCK cells were grown on transwell filter culture dish at confluence, incubated in either vehicle or 10 μM of U0126 (an inhibitor of ERK activation) for 30 min, and then treated with 1 mM of H2O2 for 30 min. After 30 min of incubation in U0126 cells were harvested and used to detect the levels of phosphorylated ERK. Cells were lysed in SDS buffer.
Briefly, cells or kidneys were harvested in the RIPA (Sigma Co.) containing proteinase inhibitor cocktail (Sigma. Co) and phosphatase inhibitor cocktail (Sigma. Co) and centrifuged 14,000 rpm for 20 min at 4° C. Supernatants, then, were collected and protein concentration was determined using BCA protein assay kit. Protein samples were mix SDS-sample buffer and denatured by 5 min of boiling at 95° C. The protein samples were separated on 4-12% SDS-PAGE gels and then transferred to an Immobilon membrane (Millipore Corp., Bedford, Mass.). The membranes were blocked by 5% of non-fat dry milk in PBS containing of 0.1% Tween-20 (PBS-T), and incubated in anti-phospho-ERK (1:1000, Cell signaling), -total-ERK (1:5000, Cell signaling), and -Sec10 (1:500; Lipschutz lab.) antibodies overnight at 4° C. After washing with 3 times with 0.1% PBS-T, the membranes were incubated with horseradish peroxidase-conjugated secondary antibodies for 1 h at RT. […]

N#CC(=C(/N)Sc1ccccc1N)/C(C#N)=C(\N)Sc1ccccc1N [U0126]
Numbers of damaged cysts (normal MDCK cells): increased | Numbers of damaged cysts [1]: increased | TER relative to TER in H2O2 alone [2]: about 80% | TER versus U0126-nontreated cells ([2]; Sec10-overexpressing cells, 24 hrs after removal of H2O2): significantly lower | H2O2-induced decrease of TER ([2]; Sec10-overexpressing cells, U0126 pretreatment 30 min, 1 mM H2O2): accelerated H2O2-induced decrease of TER | TER relative to TER in H2O2 alone (control MDCK cells): about 83% | TER recovery versus non-U0126 treated cells (control MDCK cells; control cells, 24 hrs after removal of H2O2): not significantly different | H2O2-induced decrease of TER (control MDCK cells; control cells, U0126 pretreatment 30 min, 1 mM H2O2): accelerated H2O2-induced decrease of TER | ERK phosphorylation caused by H2O2 treatment [3]: blocked ERK phosphorylation
